Assay results from US9017974B2, “Method for the synthesis of porphyrin-phospholipid conjugates” (priority 2011, dated 2015).

What was measured:
Assay type in all cases: biochemical
[1] = target: T1, Lipase from Rhizomucor miehei (Rhizomucor miehei, UniProt P19515); details: 37 C, 3 hours, 0.025% Triton X100, 5 mM Tris pH 8, HPLC/MS
T1 sequence (P19515 95-363): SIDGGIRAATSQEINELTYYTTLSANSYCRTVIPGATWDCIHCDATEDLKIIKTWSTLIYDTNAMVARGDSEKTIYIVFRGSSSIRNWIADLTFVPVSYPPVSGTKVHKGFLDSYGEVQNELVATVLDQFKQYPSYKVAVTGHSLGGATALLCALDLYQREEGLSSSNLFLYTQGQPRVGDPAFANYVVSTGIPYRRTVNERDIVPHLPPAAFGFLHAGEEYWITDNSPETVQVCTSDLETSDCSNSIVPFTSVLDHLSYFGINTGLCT

[2] = target: Lipase from Thermomyces lanuginosus (LTL) (Thermomyces lanuginosus, UniProt O59952); details: pH 8
[3] = target: Lipase from Pseudomonas cepacia (Burkholderia cepacia, UniProt P22088); details: 37 C, 3 hours, 0.025% Triton X100, 5 mM Tris pH 8, HPLC/MS
Lipase from Pseudomonas cepacia, sequence (P22088 45-364): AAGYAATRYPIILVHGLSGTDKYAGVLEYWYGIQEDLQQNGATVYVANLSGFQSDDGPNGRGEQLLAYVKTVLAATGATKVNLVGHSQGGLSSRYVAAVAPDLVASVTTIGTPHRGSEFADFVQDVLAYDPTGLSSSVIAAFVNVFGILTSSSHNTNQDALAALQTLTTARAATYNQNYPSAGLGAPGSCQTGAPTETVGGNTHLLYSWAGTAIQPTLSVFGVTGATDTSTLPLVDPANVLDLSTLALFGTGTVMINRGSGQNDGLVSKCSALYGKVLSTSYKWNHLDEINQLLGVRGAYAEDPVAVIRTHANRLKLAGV

Lipase from Thermomyces lanuginosus (LTL), sequence (O59952 23-291): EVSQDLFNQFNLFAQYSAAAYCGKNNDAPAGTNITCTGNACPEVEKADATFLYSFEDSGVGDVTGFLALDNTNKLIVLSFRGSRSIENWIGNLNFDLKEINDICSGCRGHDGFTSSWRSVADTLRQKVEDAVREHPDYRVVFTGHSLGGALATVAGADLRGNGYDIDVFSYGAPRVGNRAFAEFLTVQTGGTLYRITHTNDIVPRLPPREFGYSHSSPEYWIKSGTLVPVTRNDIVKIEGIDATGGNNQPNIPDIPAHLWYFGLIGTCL

C=Cc1c(C)c2cc3nc(c4c5[nH]c(cc6nc(cc1[nH]2)C(C)=C6CC)c(C)c5C(=O)C4)[C@@H](CCC(=O)O[C@H](COC(=O)CCCCCCCCCCCCCCC)COP(=O)([O-])OCC[N+](C)(C)C)[C@@H]3C [sn-2 pyro-lipid]
cleavage of pyro-lipid regioisomer by lipase from Rhizomucor miehei [1]: preferentially cleaved | cleavage of pyro-lipid regioisomer by LTL [2]: selectively cleaved | cleavage of pyro-lipid regioisomer by lipase from Pseudomonas cepacia [3]: preferentially cleaved
